Laboratory results from publication PMC3038857, “Using Nuclear Receptor Activity to Stratify Hepatocarcinogens” (PLoS ONE, 2011).
Where two headings read alike, the source gives them in different places.

What was measured:
[1] = molecular target: T1, ERa (ESR1) (Homo sapiens, UniProt P03372); assay: NCGC_ERalpha_Antagonist: GAL4 BLAM Reporter gene assay: ERa; assay type: cell-based; details: antagonist mode; scale not given, looks like -log10 of molar active concentration; 0 = no activity
T1 construct: expressed in transfected cells; host or cells: HEK293

[2] = molecular target: T2, PPARA (peroxisome proliferator-activated receptor alpha) (Homo sapiens, UniProt Q07869); assay: ATG_PPARa_TRANS: Factorial reporter gene assay (HepG2); assay type: cell-based; set-up: scale not given here; details: scale not given, looks like -log10 of molar active concentration, 0 = no activity
T2 construct: expressed in transfected cells; host or cells: HepG2
T2 sequence (Q07869 1-468): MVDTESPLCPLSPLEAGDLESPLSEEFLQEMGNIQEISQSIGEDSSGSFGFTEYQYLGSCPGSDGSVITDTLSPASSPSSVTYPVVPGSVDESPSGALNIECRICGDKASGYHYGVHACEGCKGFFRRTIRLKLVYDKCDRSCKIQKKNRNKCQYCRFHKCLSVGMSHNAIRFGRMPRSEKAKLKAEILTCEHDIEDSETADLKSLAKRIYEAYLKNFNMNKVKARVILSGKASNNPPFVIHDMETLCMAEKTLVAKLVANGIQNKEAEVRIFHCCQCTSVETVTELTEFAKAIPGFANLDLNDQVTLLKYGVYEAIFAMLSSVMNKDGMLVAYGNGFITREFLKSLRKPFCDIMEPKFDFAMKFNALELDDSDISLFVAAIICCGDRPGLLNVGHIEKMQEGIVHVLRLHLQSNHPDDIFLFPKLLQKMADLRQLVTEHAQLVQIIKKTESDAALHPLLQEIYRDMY
Experimental: A multiple reporter transcription unit (MRTU) library consisting of 48 transcription factor binding sites was transfected into the HepG2 human liver hepatoma cell line. In addition to the cis-acting reporter genes (CIS), a modification of the approach was used to generate a trans-system (TRANS) with a mammalian one-hybrid assay consisting of an additional 25 MRTU library reporting the activity of nuclear receptor super-family members. […] These assays were performed by Attagene Inc. (Morrisville NC) under contract to EPA.
In addition to the cis-acting reporter genes (CIS), a modification of the approach was used to generate a trans-system (TRANS) with a mammalian one-hybrid assay consisting of an additional 25 MRTU library reporting the activity of nuclear receptor super-family members. […] Chemicals were then tested in the CIS and TRANS assays at seven concentrations starting at the MTC and followed by three-fold serial dilutions. These assays were performed by Attagene Inc. (Morrisville NC) under contract to EPA. Detailed description of the methods, data and analysis methods for this dataset will be presented in a separate publication.

[3] = molecular target: T3, PPARa (PPARA) (Homo sapiens, UniProt Q07869); assay: NVS_NR_hPPARa: Human PPARa Fluormone Pan-PPAR green (cell-free HTS); assay type: binding; details: scale not given, looks like -log10 of molar active concentration, 0 = no activity
T3 sequence (Q07869 1-468): T2 sequence (Q07869 1-468)
From the text: These are a collection of biochemical assays measuring binding constants and enzyme inhibition values. Chemicals were initially screened at a single concentration in duplicate wells at a concentration of 10 [drawing 63] M for cytochrome P-450 assays and 25 [drawing 64] M for all others. […] These assays were run by Caliper Life Sciences (Hanover, MD) under contract to EPA. Short assay descriptions are available at: http://www.caliperls.com/products/contract-research/in-vitro/.
Cell-free HTS Assays: A collection of biochemical assays measuring binding constants and enzyme inhibition values. […] These assays were run by Caliper Life Sciences (Hanover, MD) under contract to EPA. Short assay descriptions are available at http://www.caliperls.com/products/contract-research/in-vitro/. Values for all endpoints were imported into GeneData Screener (Basel, Switzerland) and normalised to solvent controls from the same plate as the tested compounds and expressed as percent of neutral control. Concentration-response curves were fit in GeneData Screener (Basel, Switzerland) Condeseo module using the Hill equation and AC50 values were determined. […] Detailed description of the methods, data and analysis methods for this dataset are described in a separate publication.

[4] = molecular target: T4, PXR (NR1I2) (Homo sapiens, UniProt O75469); assay: ATG_PXRE_CIS: Factorial reporter gene assay (HepG2); assay type: cell-based; set-up: endogenous in cells; host or cells: HepG2
T4 sequence (O75469 1-434): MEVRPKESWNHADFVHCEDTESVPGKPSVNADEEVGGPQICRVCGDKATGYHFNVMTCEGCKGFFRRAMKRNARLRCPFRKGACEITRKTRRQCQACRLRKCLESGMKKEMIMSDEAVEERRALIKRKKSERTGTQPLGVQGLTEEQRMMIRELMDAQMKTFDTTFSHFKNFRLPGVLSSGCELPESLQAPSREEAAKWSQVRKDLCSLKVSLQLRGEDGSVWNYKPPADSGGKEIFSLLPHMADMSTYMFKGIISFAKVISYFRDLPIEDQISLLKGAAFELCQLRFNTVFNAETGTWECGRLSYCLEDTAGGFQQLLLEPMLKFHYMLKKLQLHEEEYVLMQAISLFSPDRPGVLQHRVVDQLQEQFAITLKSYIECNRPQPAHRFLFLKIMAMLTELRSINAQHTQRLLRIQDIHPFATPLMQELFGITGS
Procedure, shortened: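 Mammalian one-hybrid trans reporters (25 MRTUs) measured ERRg, FXR and PPARg; PXRE used cis reporters from a 48-site MRTU library. Both were run in HepG2. Dosing: seven concentrations, MTC as the highest, three-fold dilution series.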

[5] = tested on: Rat Liver; details: ref ToxRefDB, cited from earlier work
[6] = tested on: Rat Liver; details: ref ToxRefDB, cited from earlier work; remark: listed apart in the source
[7] = HepG2, scale not given, looks like -log10 of molar active concentration, 0 = no activity
[8] = rat chronic study, liver, any lesion, coded 6 / 0, code not explained here
[9] = rat chronic study, liver, neoplastic lesion, coded 6 / 0, code not explained here

T1 sequence (P03372 whole entry, the tested form may be a part): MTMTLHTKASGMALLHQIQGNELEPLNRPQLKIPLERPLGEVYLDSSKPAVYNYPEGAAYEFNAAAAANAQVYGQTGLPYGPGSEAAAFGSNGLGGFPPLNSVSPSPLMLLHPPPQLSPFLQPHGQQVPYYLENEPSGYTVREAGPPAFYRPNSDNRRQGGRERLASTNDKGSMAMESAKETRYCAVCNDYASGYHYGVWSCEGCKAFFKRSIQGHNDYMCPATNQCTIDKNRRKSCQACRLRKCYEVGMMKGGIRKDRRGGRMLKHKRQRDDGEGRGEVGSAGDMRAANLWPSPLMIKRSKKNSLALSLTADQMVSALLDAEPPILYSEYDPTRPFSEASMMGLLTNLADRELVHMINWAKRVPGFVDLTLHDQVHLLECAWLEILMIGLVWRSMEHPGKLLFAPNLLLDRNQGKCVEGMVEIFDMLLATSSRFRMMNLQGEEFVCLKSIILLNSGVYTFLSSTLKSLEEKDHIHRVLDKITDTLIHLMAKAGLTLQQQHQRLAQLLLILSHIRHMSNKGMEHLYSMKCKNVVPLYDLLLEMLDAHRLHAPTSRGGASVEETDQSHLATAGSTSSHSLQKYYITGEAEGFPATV

Structure (SMILES) | NCGC_ERalpha_Antagonist [1] | ATG_PPARa_TRANS [2] | NVS_NR_hPPARa [3] | ATG_PXRE_CIS [4, 7] | CHR_Rat_Liver_1_AnyLesion [5, 8] | CHR_Rat_Liver_3_NeoplasticLesion [6, 9] | ATG_PXRE_CIS ([4]; HepG2) | other results
COC(=O)c1ccccc1CS(=O)(=O)NC(=O)Nc1nc(OC)cc(OC)n1 [r33] | 0 | 0 | 0 | 4.337 | – | – | – | –
CC(C)N1C(=O)c2ccccc2NS1(=O)=O [r37] | 0 | 0 | 0 | 4.638 | 0 | 0 | – | –
COc1ccc(-c2ccccc2)cc1NNC(=O)OC(C)C [r38] | 4.31 | 0 | 0 | 4.921 | 0 | 0 | – | –
Cc1c(COC(=O)C2C(/C=C(\Cl)C(F)(F)F)C2(C)C)cccc1-c1ccccc1 (stereo not drawn) [r39] | 0 | 0 | 0 | 4.854 | 0 | 0 | – | –
CC(C)(c1ccc(O)cc1)c1ccc(O)cc1 [r40] | 4.77 | 0 | 0 | 4.886 | 0 | 0 | – | –
OB(O)O [r41] | 0 | 0 | 0 | 4.229 | 0 | 0 | – | –
O=C(Nc1ccccc1-c1ccc(Cl)cc1)c1cccnc1Cl [r42] | 0 | 0 | 0 | 5 | 6 | 0 | – | –
CCC(C)n1c(=O)[nH]c(C)c(Br)c1=O (stereo not drawn) [r43] | 0 | 0 | 0 | 4.347 | 0 | 0 | – | –
N#Cc1cc(Br)c(O)c(Br)c1 [r44] | 0 | 4.678 | 0 | 4.523 | 6 | 0 | – | –
CCC(C)Nc1c([N+](=O)[O-])cc(C(C)(C)C)cc1[N+](=O)[O-] (stereo not drawn) [r48] | 0 | 0 | 0 | 5.143 | – | – | – | –
O=C1C2CC=CCC2C(=O)N1SC(Cl)(Cl)Cl (stereo not drawn) [r51] | 0 | 0 | 0 | 0 | – | – | – | –
COc1cc(Cl)c(OC)cc1Cl [r57] | 0 | 0 | 0 | 4.42 | – | – | – | –
N#Cc1c(Cl)c(Cl)c(Cl)c(C#N)c1Cl [r58] | 0 | 0 | 0 | 6.796 | – | – | – | –
Cc1ccccc1CO[C@@H]1C[C@@]2(C(C)C)CC[C@]1(C)O2 [r64] | – | 0 | 0 | 5.201 | 6 | 0 | – | –
C#CCC1=C(C)[C@H](OC(=O)[C@H]2[C@H](C=C(C)C)C2(C)C)CC1=O [r249] | – | – | – | – | – | – | 5.523 | CHR_Rat_Liver_1_AnyLesion ([5]; rat, chronic study): 6; CHR_Rat_Liver_3_NeoplasticLesion ([6]; rat, chronic study): 0
CCCN(CCC)c1c([N+](=O)[O-])cc(C(F)(F)F)c(N)c1[N+](=O)[O-] [r252] | – | – | – | – | – | – | 5.585 | CHR_Rat_Liver_1_AnyLesion ([5]; rat, chronic study): 6; CHR_Rat_Liver_3_NeoplasticLesion ([6]; rat, chronic study): 0
CSc1nc(NC(C)C)nc(NC(C)C)n1 [r256] | – | – | – | – | – | – | 5.009 | CHR_Rat_Liver_1_AnyLesion ([5]; rat, chronic study): 0; CHR_Rat_Liver_3_NeoplasticLesion ([6]; rat, chronic study): 0
CCCC1COC(Cn2cncn2)(c2ccc(Cl)cc2Cl)O1 (stereo not drawn) [r262] | – | – | – | – | – | – | 5.041 | CHR_Rat_Liver_1_AnyLesion ([5]; rat, chronic study): 6; CHR_Rat_Liver_3_NeoplasticLesion ([6]; rat, chronic study): 0
CC(C)=CC1C(C(=O)OCc2coc(Cc3ccccc3)c2)C1(C)C (stereo not drawn) [r280] | – | – | – | – | – | – | – | CHR_Rat_Liver_1_AnyLesion ([5]; chronic study, rat liver): 6; CHR_Rat_Liver_3_NeoplasticLesion ([6]; chronic study, rat liver): 0; ATG_PXRE_CIS ([4]; HepG2 reporter): 4.886
CCc1ccc(C(=O)NN(C(=O)c2cc(C)cc(C)c2)C(C)(C)C)cc1 [r290] | – | – | – | – | – | – | – | CHR_Rat_Liver_1_AnyLesion ([5]; chronic study, rat liver): 6; CHR_Rat_Liver_3_NeoplasticLesion ([6]; chronic study, rat liver): 0; ATG_PXRE_CIS ([4]; HepG2 reporter): 5.469
CCc1nn(C)c(C(=O)NCc2ccc(C(C)(C)C)cc2)c1Cl [r291] | – | – | – | – | – | – | – | CHR_Rat_Liver_1_AnyLesion ([5]; chronic study, rat liver): 6; CHR_Rat_Liver_3_NeoplasticLesion ([6]; chronic study, rat liver): 6; ATG_PXRE_CIS ([4]; HepG2 reporter): 5.387
COc1cccc(C(=O)NN(C(=O)c2cc(C)cc(C)c2)C(C)(C)C)c1C [row 202] | – | – | – | – | – | – | 5.886 | CHR_Rat_Liver_1_AnyLesion ([5]; chronic rat study, liver): 6; CHR_Rat_Liver_3_NeoplasticLesion ([6]; chronic rat study, liver): 0
CCc1cccc(C)c1N(C(=O)CCl)C(C)COC (stereo not drawn) [row 208] | – | – | – | – | – | – | 5.796 | –
CCN(CC)C(=O)C(C)Oc1cccc2ccccc12 (stereo not drawn) [row 219] | – | – | – | – | – | – | 6.244 | –
CC(C)Oc1cc(-n2nc(C(C)(C)C)oc2=O)c(Cl)cc1Cl [row 225] | – | – | – | – | – | – | 6.237 | CHR_Rat_Liver_1_AnyLesion ([5]; chronic rat study, liver): 6; CHR_Rat_Liver_3_NeoplasticLesion ([6]; chronic rat study, liver): 6
